The values below come from PMC6882468 (Journal of Enzyme Inhibition and Medicinal Chemistry, 2019).

The test system of assay [1] is NF-κB activation in RAW264.7 cells. Nature of the assay: Western blot of LPS-induced NF-κB activation. Particulars: RAW264.7, 2-h pre-treatment before LPS stimulation. In kind it is cell-based, Murine. How it is done:
The cell in 96-well plates were treated as described above and then stimulated with LPS (200 ng/mL) for 24 h. The cells were harvested and lysed in an extraction lysis buffer (Beyotime Biotechnology, Shanghai, China) containing protease inhibitors. The protein concentration was determined using a BCA protein assay kit (Thermo Scientific, 23227). The whole cell lysates were separated by 10% sodium dodecyl sulphate-polyacrylamide gel electrophoresis and transferred to a nitrocellulose membrane. Each membrane was incubated with Tris-buffered saline (pH 7.6, containing 0.05% Tween-20 and 5% non-fat milk). The nitrocellulose membrane was incubated with the primary antibody against p-JNK1/2, JNK1/2, p-p38, p38, p-ERK1/2, ERK1/2, IκBa, NF-κB p65, COX-2, iNOS or β-Actin (Abcam, Cambridge, UK). Immunoreactive bands were detected by incubating with horseradish peroxidase-conjugated secondary antibodies, and visualised using enhanced chemiluminescence reagents (Bio-Rad, Hercules, CA).
Figure 5. Compound 6n inhibited LPS-induced NF-κB activation in RAW264.7 cells. […] The levels of NF-κB p65, IκB, and their phosphorylated forms were analysed using western blot.
A general note: In western blotting, separated proteins are transferred to a membrane and probed.

The next assay concerns p38α. Details: method as in PMID 17664068. The conditions noted are these: Figure 1; cited from earlier work.
For the next assay, the target named is p38α MAPK (Homo sapiens, UniProt Q16539). Nature of the assay: p38α MAPK inhibition assay in vitro. In kind it is biochemical. Particulars: triplicate, read-out: IC50 p38p. The procedure:
In brief, after mixing the enzyme reagent with the sample, a reaction mixture containing 200 µM biotin-peptide substrate and 600 µM ATP (+100 µCi/mL γ-^32 P-ATP) was added to initiate the reaction. […] Part of the reaction solution was transferred to the well of a streptavidin-coated flash plate, washed in PBS containing 0.01% Tween and sealed. The average value of counts per minute for each group and the IC50 value was calculated.
The average fluorescence values of each well were calculated and recorded as RFU (Relative Fluorescence Unit) blank control (RFU blank), RFU 100% enzyme activity control (RFU enzyme), RFU positive drug control (RFU drug) and RFU test compound (RFU compound). The inhibition rate is calculated according to the following formula. Inhibition rate (%)= (RFU (enzyme) – RFU (compound/drug) […]) /(RFU (enzyme) – RFU (blank)) * 100%
The IC50 value of the test compound was calculated by the concentration-inhibition reaction curve and the assays were performed in triplicate.

In another assay the target is T1, COX-1 (Ovis aries, UniProt P05979).
T1 construct: purchased BioVision, Inc
T1 sequence (P05979 25-600): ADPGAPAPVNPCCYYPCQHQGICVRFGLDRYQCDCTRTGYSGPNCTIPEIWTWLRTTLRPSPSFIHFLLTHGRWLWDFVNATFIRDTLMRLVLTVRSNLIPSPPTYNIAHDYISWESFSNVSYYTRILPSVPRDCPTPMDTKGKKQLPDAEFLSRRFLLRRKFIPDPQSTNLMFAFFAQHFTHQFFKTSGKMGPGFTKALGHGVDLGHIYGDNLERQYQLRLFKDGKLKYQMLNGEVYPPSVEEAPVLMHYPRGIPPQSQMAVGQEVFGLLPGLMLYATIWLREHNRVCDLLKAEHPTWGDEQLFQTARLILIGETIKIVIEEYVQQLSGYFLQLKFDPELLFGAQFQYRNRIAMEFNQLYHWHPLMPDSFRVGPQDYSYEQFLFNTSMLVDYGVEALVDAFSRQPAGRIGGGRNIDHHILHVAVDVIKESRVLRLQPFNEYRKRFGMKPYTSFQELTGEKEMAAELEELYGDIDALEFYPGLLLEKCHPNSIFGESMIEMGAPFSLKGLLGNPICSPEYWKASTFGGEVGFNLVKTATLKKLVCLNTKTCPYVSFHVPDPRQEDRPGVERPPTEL
The experiment in a line: COX-1 inhibition assay in vitro (COX Inhibitor Screening Kit, fluorometric). In kind it is biochemical. The procedure: Simply, different concentrations of the test compound solution were added to the mixed solution containing COX-1/COX-2 enzyme (10 µL) and Assay Buffer (960 µL, 0.1 M Tris-HCl pH 8.0 containing 5 µM EDTA and 2 µM phenol). […] The IC50 values were calculated as described above.

In assay [2] the test system is DNFB-induced mouse model of allergic contact dermatitis. The experiment in a line: DNFB-induced mouse model of allergic contact dermatitis (ear swelling). In kind it is in vivo, Male ICR mice. Particulars: for Swelling degree / Inhibition (%) of ear swelling: mice; for Swelling degree: Mean ± SD, n = 6; for Inhibition (%) of ear swelling: vs model group; for in vivo inhibitory activity, in words: p.o. 5 mg/kg, p < 0.01. The procedure: Male ICR mice (20 ± 2 g) were obtained from the Experimental Animal Centre of Anhui Medical University (Hefei, China). The mice reared in a pathogen-free setting (23 ± 2 °C, 55 ± 5% humidity) with free access to water and pelleted food throughout the experimental cycle. All experimental procedures performed in accordance with guide for the Care and Use of Laboratory Animals (National Research Council, 1996) and were approved by the Experimental Animal Ethics Committee of Anhui University of Chinese Medicine (Hefei, China). After 7 days acclimatisation, the mice were randomly divided into control group, ACD model group, dexamethasone positive control group and 20 compound groups, six in each group. The control group and the model group were given the same dose of the vehicle, the positive control group was given dexamethasone 0.5 mg/kg, and the test compound groups were given compound 5 mg/kg, all of which were given by intragastric administration and were administered once a day for 6 days. Except for the control group, the 50 µL of 1% DNFB (in acetone/olive oil 4:1) was administered to the stripped epidermis, and repeated the next day. After 6 days of drug treatment, 10 µL of 1% DNFB acetone olive oil solution was applied on both sides of the right ear to stimulate inflammation, and equivalent acetone olive oil solution was applied on the left ear for comparison. […] Calculation was carried out according to the following equations. Swelling degree (mg) = MR – ML Inhibitory rate of ear swelling (%)=((MR – ML) model – (MR – ML) treated)/(MR – ML) model ×100% MR=Average weight of the right ear slices;ML= Average weight of the left ear slices […] Dexamethasone (DEX) at a p.o. dose of 0.5 mg/kg was employed as the positive control. After the mice were sacrificed, the swelling degree and inhibition rate were calculated by weighing the same part of both ears.

The next assay deals with T2, COX-2 (Homo sapiens, UniProt P35354).
T2 sequence (P35354 18-604): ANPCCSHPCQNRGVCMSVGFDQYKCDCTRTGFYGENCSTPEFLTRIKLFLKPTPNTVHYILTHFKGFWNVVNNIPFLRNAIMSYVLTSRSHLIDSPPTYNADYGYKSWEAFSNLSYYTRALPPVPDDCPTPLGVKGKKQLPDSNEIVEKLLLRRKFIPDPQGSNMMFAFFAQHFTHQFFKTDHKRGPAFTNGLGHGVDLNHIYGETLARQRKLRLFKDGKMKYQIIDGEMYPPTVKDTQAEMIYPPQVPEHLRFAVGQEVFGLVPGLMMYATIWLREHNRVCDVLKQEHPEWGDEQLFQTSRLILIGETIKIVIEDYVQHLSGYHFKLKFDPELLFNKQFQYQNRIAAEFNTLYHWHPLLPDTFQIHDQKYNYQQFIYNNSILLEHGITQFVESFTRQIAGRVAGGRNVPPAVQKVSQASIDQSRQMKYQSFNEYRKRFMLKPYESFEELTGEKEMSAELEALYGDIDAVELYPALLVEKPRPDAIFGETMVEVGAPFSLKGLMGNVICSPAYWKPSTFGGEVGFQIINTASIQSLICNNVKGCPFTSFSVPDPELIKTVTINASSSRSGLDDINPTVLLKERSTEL
The experiment in a line: COX-2 inhibition assay in vitro (COX Inhibitor Screening Kit, fluorometric). Particulars: for SI (COX-1/COX-2): IC50 (COX-1)/IC50 (COX-2).

Where [3] appears, read: 5 mg/kg intragastric once a day for 6 days, ear slices weighed 24 h after DNFB challenge.
The mark [4] stands for this setting: 5 mg/kg intragastric once a day for 6 days.
[5] abbreviates: positive control 0.5 mg/kg intragastric once a day for 6 days.

Each structure is given as a SMILES string.

Sequence of p38α MAPK (Q16539 whole entry): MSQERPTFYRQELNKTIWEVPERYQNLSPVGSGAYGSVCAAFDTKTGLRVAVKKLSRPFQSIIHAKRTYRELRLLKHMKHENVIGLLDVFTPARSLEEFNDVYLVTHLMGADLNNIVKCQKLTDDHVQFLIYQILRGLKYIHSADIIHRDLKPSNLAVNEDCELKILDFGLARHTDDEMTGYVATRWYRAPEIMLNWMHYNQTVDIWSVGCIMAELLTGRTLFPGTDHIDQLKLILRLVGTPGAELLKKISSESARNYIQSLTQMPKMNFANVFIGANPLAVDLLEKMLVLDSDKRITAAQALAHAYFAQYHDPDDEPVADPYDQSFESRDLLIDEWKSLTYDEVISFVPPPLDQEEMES

For `Cc1ccc(S(=O)(=O)/C=C/C#N)cc1` [Bay 11e7082, reference compound], in assay [1], the “LPS-induced IκB phosphorylation” value is listed as “markedly decreased”, the “accumulation of NF-κB p65 subunit in the nucleus” value is on record as “lowered” and the “cytosolic IκB” value is reported as “increased”.
For `COc1cc2[nH]ccc2cc1C(=O)N1CCN(Cc2ccccc2)CC1` [Compound 2], the IC50 in the assay on p38α was 950 nM.
Consider `CC(=O)c1ccccc1C(=O)N1CCN(Cc2cccc([N+](=O)[O-])c2)CC1` [Compound 6f, 1–(2-(4–(3-Nitrobenzyl)piperazine-1-carbonyl)phenyl)ethan-1-one], for which the IC50 on p38α MAPK amounted to 3.41 ± 0.22 µM; against COX-1 it was 1190 ± 80 nM; against COX-2, 842 ± 62 nM. In addition, in assay [2] (setting [3]), the “Swelling degree” value worked out at 9.9 ± 2.9 mg. In addition, in assay [2] (setting [4]), the “Inhibition (%) of ear swelling” value is given as 39.6%. Also, the “in vivo inhibitory activity, in words” value in assay [2] was “significant inhibitory activity”. In addition, at COX-2, the “SI (COX-1/COX-2)” value stood at 1.41.
Consider `CC(=O)c1ccccc1C(=O)N1CCN(Cc2ccc(F)cc2)CC1` [Compound 6j, 1–(2-(4–(4-Fluorobenzyl)piperazine-1-carbonyl)phenyl)ethan-1-one], for which the IC50 on p38α MAPK is 8.49 ± 0.57 µM; at COX-1, 4230 ± 230 nM; against COX-2 it was 22 ± 3 nM. In addition, the “Swelling degree” value in assay [2] (setting [3]) was 10.4 ± 3.1 mg. Also, the “Inhibition (%) of ear swelling” value in assay [2] (setting [4]) came to 36.6%. Moreover, the “in vivo inhibitory activity, in words” value in assay [2] is reported as “significant inhibitory activity”. In addition, the “SI (COX-1/COX-2)” value at COX-2 was determined as 192.27.
Regarding `CC(=O)c1ccccc1C(=O)N1CCN(Cc2ccc3c(c2)OCCO3)CC1` [Compound 6q, 1–(2-(4-((2,3-Dihydrobenzo[b][1,4]dioxin-6-yl)methyl)piperazine-1-carbonyl)phenyl)ethan-1-one], the “Swelling degree” value in assay [2] (setting [3]) amounted to 13.3 ± 2.6 mg. In addition, in assay [2] (setting [4]), the “Inhibition (%) of ear swelling” value was 18.9%.
For the molecule `CC(=O)c1ccccc1C(=O)N1CCN(Cc2nc(C)c(C)nc2C)CC1` [Compound 6r, 1–(2-(4-((3,5,6-Trimethylpyrazin-2-yl)methyl)piperazine-1-carbonyl)phenyl)ethan-1-one], in assay [2] (setting [3]), the “Swelling degree” value is 10.8 ± 3.5 mg. Further, the “Inhibition (%) of ear swelling” value in assay [2] (setting [4]) was 34.1%.
In the case of `CC(=O)c1ccccc1C(=O)N1CCN(Cc2ccncc2)CC1` [Compound 6s, 1–(2-(4-(Pyridin-4-ylmethyl)piperazine-1-carbonyl)phenyl)ethan-1-one], in assay [2] (setting [3]), the “Swelling degree” value is reported as 12.9 ± 3.4 mg. For the same molecule, the “Inhibition (%) of ear swelling” value in assay [2] (setting [4]) is reported as 21.3%.
Regarding `C[C@@H]1C[C@H]2[C@@H]3CCC4=CC(=O)C=C[C@]4(C)[C@@]3(F)[C@@H](O)C[C@]2(C)[C@@]1(O)C(=O)CO` [DEX, Dexamethasone, reference compound], in assay [2] (setting [5]), the “Inhibition (%) of ear swelling” value is recorded as 51.8% and the “Swelling degree” value stood at 7.9 ± 3.0 mg.

Usually IC50 stands for the concentration at which inhibition is half-maximal.
